From patent publication US20070122422A1, “Sodium-independent small neutral amino acid transporter transporting L- and D- amino acids” (Japan Science and Technology Corporation, priority 2000, published 2007)

Tests used:
Type in all cases: cell-based
[1] = target: T1, asc-1 of mouse (co-expressed with 4F2hc of mouse) (Mus musculus, UniProt P63115); experiment: Michaelis-Menten kinetic test of substrate incorporation by Xenopus oocytes co-expressing asc-1 and 4F2hc; settings: ratio to the Vmax value for alanine (defined as 1.00)
T1 construct: expressed in transfected cells; host or cells: Xenopus oocytes injected with cRNA
T1 sequence (P63115 1-530): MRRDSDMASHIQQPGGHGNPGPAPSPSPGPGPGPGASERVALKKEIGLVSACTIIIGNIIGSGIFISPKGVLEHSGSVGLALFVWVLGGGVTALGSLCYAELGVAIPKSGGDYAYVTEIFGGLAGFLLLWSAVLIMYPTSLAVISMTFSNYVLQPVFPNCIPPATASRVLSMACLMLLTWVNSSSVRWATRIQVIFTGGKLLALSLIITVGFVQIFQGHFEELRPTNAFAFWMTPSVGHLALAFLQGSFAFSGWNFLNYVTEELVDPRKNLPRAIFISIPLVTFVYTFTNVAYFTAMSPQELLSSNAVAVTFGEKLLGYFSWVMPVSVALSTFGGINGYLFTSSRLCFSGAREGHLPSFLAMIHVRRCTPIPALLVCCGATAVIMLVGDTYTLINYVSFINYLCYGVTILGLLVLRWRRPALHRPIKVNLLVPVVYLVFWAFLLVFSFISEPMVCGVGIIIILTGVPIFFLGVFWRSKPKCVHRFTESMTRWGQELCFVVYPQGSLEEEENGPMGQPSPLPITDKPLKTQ
T1 sequence (P10852 1-526 partner): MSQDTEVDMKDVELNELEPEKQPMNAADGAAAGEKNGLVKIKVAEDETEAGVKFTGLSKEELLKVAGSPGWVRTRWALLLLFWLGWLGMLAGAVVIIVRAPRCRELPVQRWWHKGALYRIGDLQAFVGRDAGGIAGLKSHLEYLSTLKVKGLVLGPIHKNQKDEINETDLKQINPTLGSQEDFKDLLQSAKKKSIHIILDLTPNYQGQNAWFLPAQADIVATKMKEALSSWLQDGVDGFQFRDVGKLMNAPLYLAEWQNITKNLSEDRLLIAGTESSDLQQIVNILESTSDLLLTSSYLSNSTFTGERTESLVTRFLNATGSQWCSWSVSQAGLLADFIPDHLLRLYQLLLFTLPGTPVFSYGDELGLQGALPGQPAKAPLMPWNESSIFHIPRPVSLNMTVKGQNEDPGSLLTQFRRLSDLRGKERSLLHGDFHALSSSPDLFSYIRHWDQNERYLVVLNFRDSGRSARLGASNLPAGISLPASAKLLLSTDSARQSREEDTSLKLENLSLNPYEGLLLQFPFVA
Procedure: (§1) Into oocytes were injected 12 ng of asc-1 gene cRNA of mouse, 13 ng of 4F2hc gene cRNA of mouse or 12 ng asc-1 gene cRNA of mouse/13 ng of 4F2hc gene cRNA of mouse to express followed by incubating for 3 days. […] Thus, the oocytes were allowed to stand for 30 minutes in a Na^+-free uptake solution [100 mM choline chloride, 2 mM potassium chloride, 1.8 mM calcium chloride, 1 mM magnesium chloride, 5 mM HEPES; pH 7.4] containing ^14C-alanine (100 μM) as a substrate and the rate of the substrate incorporated into the cells was measured by way of counting the radioactivity incorporated thereinto.
A Michaelis-Menten kinetic test was carried out for a sodium-independent small neutral amino acid transporter asc-1 which transports L- and D-amino acids. By checking the changes in the rate of incorporation of alanine due to the difference in concentration of the alanine substrate, the Michaelis-Menten kinetic test of asc-1 was carried out.
An experiment for the incorporation of alanine was carried out according to the method mentioned in the above Example 2(1) using the oocytes into which both asc-1 gene cRNA of mouse and 4F2hc gene cRNA of mouse were injected.
With regard to amino acids other than alanine which were used as substrates, a Michaelis-Menten kinetic was carried out as well in the same manner whereupon Km values and Vmax values were calculated. Each Vmax value in Table 1 was shown in terms of the ratio when the Vmax value of alanine was defined as 1.00.

[2] = target: T1, asc-1 of mouse (co-expressed with 4F2hc of mouse); experiment: Inhibition of 14C-alanine incorporation by added amino acids and analogs in oocytes co-expressing asc-1 and 4F2hc; settings: 14C-alanine 50 μM; 5 mM non-labeled compound; Na+-free uptake solution
Procedure: as §1
In an experiment of incorporation of alanine by oocytes into which both asc-1 gene cRNA of mouse and 4F2hc gene cRNA of mouse were injected, influence of addition of various amino acid and analogs thereof was investigated.
In an experiment of incorporation of alanine, a method according to that mentioned in the above Example 2(1) was carried out using oocytes into which both asc-1 gene cRNA of mouse and 4F2hc gene cRNA of mouse were injected. Here, a Na^+-free uptake solution was used and incorporation of ^14C-alanine (50 μM) was measured in the presence and absence of 5 mM of various compounds (non-labeled).

[3] = target: T1, asc-1 of mouse (co-expressed with 4F2hc of mouse); experiment: Incorporation of radiolabeled amino acids and analogs by oocytes co-expressing asc-1 and 4F2hc; settings: for incorporation into the oocytes as substrate: radiolabeled substrate, oocytes expressing both asc-1 and 4F2hc, Na+-free uptake solution; for transport by asc-1 (affinity in words): summary statement, asc-1 co-existing with 4F2hc
Procedure: Incorporation of alanine when asc-1 gene cRNA of mouse was solely expressed in oocytes of Xenopus and when asc-1 gene cRNA of mouse and 4F2hc gene cRNA of mouse were expressed in oocytes of Xenopus together was compared.
as §1
In an experiment of incorporation of alanine by oocytes into which both asc-1 gene cRNA and 4F2hc gene cRNA of mouse were injected together, influence of the salt added to the medium was investigated.
The experiment of incorporation of alanine was carried out in accordance with the method mentioned in the above Example 2(1) using oocytes into which both asc-1 gene cRNA and 4F2hc gene cRNA of mouse were injected together. When the influence of sodium ion was checked however, a standard uptake solution (where 100 mM choline chloride was substituted with 100 mM sodium chloride) was used in place of the Na^+-free uptake solution as the uptake solution. When the influence of chlorine ion was checked, a gluconic acid uptake solution (where 100 mM sodium chloride was substituted with 100 mM sodium gluconate) was used in place of the standard uptake solution.
Incorporation by asc-1 was investigated using various amino acids and analogs thereof as substrates. Experiment for incorporation of various amino acids and analogs thereof was carried out according to the method mentioned in the above Example 2(1) using oocytes into which asc-1 gene cRNA of mouse and 4F2hc gene cRNA of mouse were injected together. With regard to the substrates however, various compounds labeled with radioactivity were used in place of ^14C-alanine.
Influence of pH was checked in an experiment for incorporation of alanine by oocytes into which both asc-1 gene cRNA and 4F2hc gene cRNA of mouse were injected together. With regard to an experiment for incorporation of alanine, the method according to that mentioned in the above Example 2 (1) was carried out using oocytes into which both asc-1 gene cRNA of mouse and 4F2hc gene cRNA of mouse were injected together.

[4] = target: T1, asc-1 of mouse (co-expressed with 4F2hc of mouse); experiment: Release of preloaded 14C-alanine from oocytes co-expressing asc-1 and 4F2hc on extracellular addition of compound; settings: 100 μM compound added to Na+-free uptake solution; room temperature
Procedure: (§2) Release of a preloaded ^14C-alanine mediated by asc-1 was checked in the oocytes into which both asc-1 gene cRNA and 4F2hc gene cRNA of mouse were injected together. ^14C-Alanine (−3nCi) of 100 μM in an amount of 100 nl was injected into the oocytes into which both asc-1 gene cRNA and 4F2hc gene cRNA of mouse were injected together, washed with an ice-cooled Na^+-free uptake solution containing no alanine and transferred to a Na^+-free uptake solution to which alanine (100 μM) was added or not added at room temperature (18° C.-22° C.) and the amount of ^14C-alanine released outside the cells was measured.
In oocytes into which cRNA of asc-1 gene and cRNA of 4F2hc gene of mouse were injected together, release of preloaded ^14C-alanine mediated by asc-1 was investigated whereupon it was checked whether the compound which inhibited the incorporation of ^14C-alanine mediated by asc-1 was a substrate of asc-1.
as §2, with “^14C-Alanine” for “Release of a preloaded ^14C-alanine mediated by asc-1 was checked in the oocytes into which both asc-1 gene cRNA and 4F2hc gene cRNA of mouse were injected together. ^14C-Alanine”, “which amino acid or amino acid analog” for “which alanine”
Black bars in FIG. 18 are the case where there were used oocytes into which cRNA of mouse asc-1 gene and cRNA of mouse 4F2hc gene were injected while white bars are the case where there were used oocytes into which water was injected instead of cRNA as a control.

[5] = target: T2, intracellular substrate-binding site of asc-1 of mouse (Mus musculus, UniProt P63115); experiment: Release of injected 14C-amino acid from oocytes co-expressing asc-1 and 4F2hc on extracellular alanine; settings: alanine 100 μM added to Na+-free uptake solution
T2 construct: expressed in transfected cells; host or cells: Xenopus oocytes injected with cRNA
T2 sequence (P63115 1-530): T1 sequence (P63115 1-530)
T2 sequence (P10852 1-526 partner): T1 sequence (P10852 1-526 partner)
Procedure: In oocytes into which cRNA of asc-1 gene and cRNA of 4F2hc gene of mouse were injected together, release of preloaded ^14C-amino acid mediated by asc-1 was checked whereby the substrate selectivity of intracellular substrate-binding site of asc-1 was checked.
^14C-Amino acid (˜3nCi) of 100 μM in an amount of 100 nl was injected into the oocytes into which both asc-1 gene cRNA and 4F2hc gene cRNA of mouse were injected together, washed with an ice-cooled Na^+-free uptake solution containing no alanine and transferred to a Na^+-free uptake solution to which alanine (100 μM) was added or not added at room temperature (18° C.-22° C.) and the amount of ^14C-amino acid released outside the cells was measured.
Black bars in FIG. 21 show the case where alanine was added to a Na^+-free uptake solution while bars with oblique lines show the case where alanine was not added to a Na^+-free uptake solution.

Row | Compound | Vmax [1] | inhibition of incorporation of 14C-alanine mediated by asc-1 [2] | incorporation into the oocytes as substrate [3] | transport by asc-1 (affinity in words) [3] | increase in the release of preloaded 14C-alanine [4] | release of injected 14C-labeled amino acid by extracellular alanine [5]
1 | NCCC(=O)O [β-Alanine] | 0.92 | inhibited | big incorporation | transports | significant increase | –
2 | C[C@H](O)[C@@H](N)C(=O)O [D-Threonine] | – | – | – | – | significant increase | –
3 | N[C@H](CS)C(=O)O [D-cysteine] | – | mediumly inhibited | – | transports | significant increase | –
4 | N[C@@H](Cc1ccccc1)C(=O)O [L-Phenylalanine] | 1.09 | – | – | lowly affinitive | – | –
5 | NCC(=O)O [Glycine] | 0.89 | – | – | – | high increase | increase in release
6 | CC[C@H](C)[C@H](N)C(=O)O [L-Isoleucine] | 1.33 | – | – | lowly affinitive | – | –
7 | C[C@@H](N)C(=O)O [D-Alanine] | 0.86 | strongly inhibited | big incorporation | transports | significant increase | –
8 | N[C@@H](CS)C(=O)O [L-Cysteine] | 0.82 | particularly strongly inhibited | big incorporation | highly affinitive | – | increase in release
9 | CC(C)(N)C(=O)O [AIB, α-aminoisobutyric acid] | 0.81 | inhibited | big incorporation | transports | significant increase | –
10 | NC1(C(=O)O)CC2CCC1C2 (stereo not drawn) [BCH, 2-amino-2-norbornane-carboxylic acid] | – | did not affect | – | – | – | –
11 | γ-aminoisobutyric acid | – | did not affect | – | – | – | –
12 | C[C@@H](O)[C@H](N)C(=O)O [L-Threonine] | 0.86 | – | – | – | high increase | increase in release
13 | CC(C)[C@H](N)C(=O)O [L-Valine] | 1.17 | – | – | lowly affinitive | medium increase | –
14 | N[C@H](CO)C(=O)O [D-Serine] | 1.22 | strongly inhibited | big incorporation | highly affinitive | significant increase | –
15 | N[C@@H](Cc1c[nH]cn1)C(=O)O [L-Histidine] | 0.79 | – | – | lowly affinitive | – | –
16 | COC(=O)[C@H](C)N [alanine methyl ester] | – | inhibited | – | transports | significant increase | –
17 | CSCC[C@H](N)C(=O)O [L-Methionine] | 1.15 | – | – | lowly affinitive | medium increase | –
18 | CNCC(=O)O [sarcosine] | – | did not affect | – | – | – | –
19 | CN[C@@H](C)C(=O)O [N-methylalanine] | – | did not affect | – | – | – | –
